Assay results: patent US10245261B2, “Substituted indol-5-ol derivatives and their therapeutic applications” (NantBioScience, Inc., priority 2013, dated 2019)

Assays:
Assay in all cases: KinaseProfiler kinase assay
Format in all cases: biochemical
CK1γ2(h) = CK1γ2(h) (Homo sapiens, UniProt P78368)
Outline: (§1)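 Buffer 20 mM MOPS, 1 mM EDTA, 0.01% Brij-35, 5% glycerol, 0.1% β-mercaptoethanol, 1 mg/mL BSA for compound dilution; reaction at pH 7.0 with [γ-33P]ATP, 40 min RT; filtermat/scintillation read-out; 0%/100% set by no-kinase and phosphopeptide wells.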

CDK1/cyclinB(h) = CDK1/cyclinB(h) (Homo sapiens, UniProt P06493)
Outline: as §1

IR(h) = IR(h) (Homo sapiens, UniProt P06213)
Outline: as §1

EphB3(h) = EphB3(h) (Homo sapiens, UniProt P54753)
Outline: as §1

PIP5K1α(h) = PIP5K1α(h) (Homo sapiens, UniProt Q99755)
Outline: as §1

PKCβII(h) = PKCβII(h) (Homo sapiens, UniProt P05771)
Outline: as §1

PKG1α(h) = PKG1α(h) (Homo sapiens, UniProt Q13976)
Outline: as §1

Tec(h) activated = Tec(h) activated (Homo sapiens, UniProt P42680)
Outline: as §1

Bmx(h) = Bmx(h) (Homo sapiens, UniProt P51813)
Outline: as §1

IKKα(h) = IKKα(h) (Homo sapiens, UniProt O15111)
Sequence of IKKα(h) (O15111 whole entry): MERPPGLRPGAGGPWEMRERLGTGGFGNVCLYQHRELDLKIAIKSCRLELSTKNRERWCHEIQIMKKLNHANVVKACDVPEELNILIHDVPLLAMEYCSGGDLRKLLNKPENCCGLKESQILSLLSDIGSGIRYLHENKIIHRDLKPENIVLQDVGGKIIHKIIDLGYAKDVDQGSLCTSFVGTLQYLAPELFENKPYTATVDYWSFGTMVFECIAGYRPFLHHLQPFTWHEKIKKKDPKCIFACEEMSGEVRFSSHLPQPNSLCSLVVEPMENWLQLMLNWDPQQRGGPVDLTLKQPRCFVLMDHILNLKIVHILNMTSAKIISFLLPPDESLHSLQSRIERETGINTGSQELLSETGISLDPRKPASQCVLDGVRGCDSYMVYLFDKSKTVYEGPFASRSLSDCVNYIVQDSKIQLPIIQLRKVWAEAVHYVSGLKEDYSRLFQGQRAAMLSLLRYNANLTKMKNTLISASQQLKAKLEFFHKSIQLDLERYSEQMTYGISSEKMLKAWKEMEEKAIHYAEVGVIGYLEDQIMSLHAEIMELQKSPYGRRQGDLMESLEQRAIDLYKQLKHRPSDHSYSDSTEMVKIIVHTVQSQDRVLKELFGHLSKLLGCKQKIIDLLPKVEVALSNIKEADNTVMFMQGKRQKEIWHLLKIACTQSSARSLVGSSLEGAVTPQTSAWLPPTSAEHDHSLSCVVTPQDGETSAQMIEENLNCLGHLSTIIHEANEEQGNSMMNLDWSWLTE
Outline: as §1

GRK6(h) = GRK6(h) (Homo sapiens, UniProt P43250)
Outline: as §1

IRAK4(h) = IRAK4(h) (Homo sapiens, UniProt Q9NWZ3)
Outline: as §1

Met(M1268T)(h) = Met(M1268T)(h) (Homo sapiens, UniProt P08581, M1250T)
Outline: as §1

LOK(h) = LOK(h) (Homo sapiens, UniProt O94804)
Sequence of LOK(h) (O94804 whole entry): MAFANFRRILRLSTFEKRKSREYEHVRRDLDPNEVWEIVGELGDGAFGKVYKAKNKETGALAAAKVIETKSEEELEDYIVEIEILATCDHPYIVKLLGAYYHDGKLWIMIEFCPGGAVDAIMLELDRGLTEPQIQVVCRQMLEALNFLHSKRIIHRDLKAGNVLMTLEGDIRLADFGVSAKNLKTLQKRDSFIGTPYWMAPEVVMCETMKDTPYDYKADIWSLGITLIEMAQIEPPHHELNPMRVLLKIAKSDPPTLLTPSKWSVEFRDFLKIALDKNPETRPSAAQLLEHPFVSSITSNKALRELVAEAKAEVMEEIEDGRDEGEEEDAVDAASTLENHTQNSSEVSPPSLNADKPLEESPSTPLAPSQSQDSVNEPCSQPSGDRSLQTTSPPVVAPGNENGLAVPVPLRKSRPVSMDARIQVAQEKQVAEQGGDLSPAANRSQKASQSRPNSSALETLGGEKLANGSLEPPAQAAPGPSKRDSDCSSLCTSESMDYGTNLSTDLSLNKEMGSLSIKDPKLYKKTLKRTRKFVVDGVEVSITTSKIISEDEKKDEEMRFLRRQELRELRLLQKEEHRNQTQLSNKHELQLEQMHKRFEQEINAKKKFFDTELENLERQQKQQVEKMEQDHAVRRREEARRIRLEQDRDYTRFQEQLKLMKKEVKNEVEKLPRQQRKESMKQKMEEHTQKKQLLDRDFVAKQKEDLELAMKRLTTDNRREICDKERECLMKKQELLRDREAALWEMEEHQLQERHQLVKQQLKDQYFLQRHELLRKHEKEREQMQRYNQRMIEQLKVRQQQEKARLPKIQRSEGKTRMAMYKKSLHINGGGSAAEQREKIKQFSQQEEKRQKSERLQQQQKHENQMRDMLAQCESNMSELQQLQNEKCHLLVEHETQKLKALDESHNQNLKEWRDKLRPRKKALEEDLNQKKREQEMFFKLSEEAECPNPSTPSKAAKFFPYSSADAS
Outline: as §1

LIMK1(h) = LIMK1(h) (Homo sapiens, UniProt P53667)
Outline: as §1

CaMKIδ(h) = CaMKIδ(h) (Homo sapiens, UniProt Q8IU85)
Outline: as §1

Aurora-B(h) = Aurora-B(h) (Homo sapiens, UniProt Q96GD4)
Outline: as §1

AMPKα2(h) = AMPKα2(h) (Homo sapiens, UniProt P54646)
Outline: as §1

[1] = target: PI3 Kinase (p110α/p65α)(h) (Homo sapiens, UniProt P42336)
Sequence of PI3 Kinase (p110α/p65α)(h) (P42336 whole entry): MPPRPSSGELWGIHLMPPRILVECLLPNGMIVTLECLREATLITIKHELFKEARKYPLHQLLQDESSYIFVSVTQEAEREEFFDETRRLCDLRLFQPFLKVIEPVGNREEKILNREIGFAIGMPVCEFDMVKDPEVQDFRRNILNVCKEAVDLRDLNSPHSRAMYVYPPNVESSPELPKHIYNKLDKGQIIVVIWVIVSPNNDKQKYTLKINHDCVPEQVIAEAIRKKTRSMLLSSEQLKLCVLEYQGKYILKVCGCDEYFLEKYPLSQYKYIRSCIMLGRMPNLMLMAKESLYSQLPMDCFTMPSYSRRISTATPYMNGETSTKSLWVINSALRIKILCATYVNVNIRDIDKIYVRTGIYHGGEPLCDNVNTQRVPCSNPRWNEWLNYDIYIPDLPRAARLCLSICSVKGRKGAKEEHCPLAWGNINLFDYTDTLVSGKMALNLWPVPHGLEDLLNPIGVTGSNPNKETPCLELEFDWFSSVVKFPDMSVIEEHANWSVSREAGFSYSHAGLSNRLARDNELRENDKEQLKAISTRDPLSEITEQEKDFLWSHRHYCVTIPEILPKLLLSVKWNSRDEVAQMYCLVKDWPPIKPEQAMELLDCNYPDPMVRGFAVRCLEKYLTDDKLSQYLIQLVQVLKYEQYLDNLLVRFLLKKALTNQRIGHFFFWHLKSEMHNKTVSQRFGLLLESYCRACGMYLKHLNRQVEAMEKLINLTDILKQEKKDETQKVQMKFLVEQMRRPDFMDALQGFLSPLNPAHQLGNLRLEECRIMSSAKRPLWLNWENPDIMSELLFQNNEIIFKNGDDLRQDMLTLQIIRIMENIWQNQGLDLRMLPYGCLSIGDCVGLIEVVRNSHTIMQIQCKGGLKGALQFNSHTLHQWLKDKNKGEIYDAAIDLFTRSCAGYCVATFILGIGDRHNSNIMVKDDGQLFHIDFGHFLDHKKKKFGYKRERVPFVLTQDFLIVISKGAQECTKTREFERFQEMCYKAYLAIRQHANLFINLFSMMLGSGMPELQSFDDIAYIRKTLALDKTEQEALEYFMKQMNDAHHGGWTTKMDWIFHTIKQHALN
Outline: as §1

LKB1(h) = LKB1(h) (Homo sapiens, UniProt Q15831)
Sequence of LKB1(h) (Q15831 whole entry): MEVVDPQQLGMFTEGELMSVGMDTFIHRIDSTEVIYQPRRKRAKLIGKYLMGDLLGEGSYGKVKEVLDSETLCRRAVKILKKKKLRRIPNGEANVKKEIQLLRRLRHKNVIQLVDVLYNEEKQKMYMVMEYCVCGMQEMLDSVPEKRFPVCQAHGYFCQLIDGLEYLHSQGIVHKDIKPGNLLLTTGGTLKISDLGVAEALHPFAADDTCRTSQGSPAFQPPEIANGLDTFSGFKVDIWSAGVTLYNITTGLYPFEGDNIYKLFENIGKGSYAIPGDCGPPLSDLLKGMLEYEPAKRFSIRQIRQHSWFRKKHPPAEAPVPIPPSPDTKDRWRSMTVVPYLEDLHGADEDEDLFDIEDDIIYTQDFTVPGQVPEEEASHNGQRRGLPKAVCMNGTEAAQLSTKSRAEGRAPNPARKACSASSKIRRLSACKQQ
Sequence of LKB1(h) (Q7RTN6 whole entry partner): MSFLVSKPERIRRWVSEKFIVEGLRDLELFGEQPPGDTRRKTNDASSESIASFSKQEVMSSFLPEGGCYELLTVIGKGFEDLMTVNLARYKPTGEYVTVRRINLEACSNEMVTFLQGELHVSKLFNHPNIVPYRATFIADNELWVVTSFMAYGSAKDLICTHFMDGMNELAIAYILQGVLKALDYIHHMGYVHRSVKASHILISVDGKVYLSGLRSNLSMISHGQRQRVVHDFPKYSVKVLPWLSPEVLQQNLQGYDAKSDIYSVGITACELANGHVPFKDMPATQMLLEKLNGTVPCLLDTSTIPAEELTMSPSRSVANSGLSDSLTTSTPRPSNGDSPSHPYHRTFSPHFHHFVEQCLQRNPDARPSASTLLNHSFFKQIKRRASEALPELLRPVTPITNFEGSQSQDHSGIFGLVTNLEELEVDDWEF
Sequence of LKB1(h) (Q9Y376 whole entry partner): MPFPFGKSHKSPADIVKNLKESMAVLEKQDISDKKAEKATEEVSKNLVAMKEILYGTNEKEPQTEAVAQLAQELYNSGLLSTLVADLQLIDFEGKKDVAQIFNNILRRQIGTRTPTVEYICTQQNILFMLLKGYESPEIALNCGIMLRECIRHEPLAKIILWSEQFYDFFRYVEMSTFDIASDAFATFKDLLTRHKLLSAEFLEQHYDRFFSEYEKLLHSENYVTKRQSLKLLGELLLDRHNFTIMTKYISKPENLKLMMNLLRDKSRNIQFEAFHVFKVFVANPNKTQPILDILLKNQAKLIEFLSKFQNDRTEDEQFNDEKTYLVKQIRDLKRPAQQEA
Outline: as §1

MAPK2(m) = MAPK2(m) (Mus musculus, UniProt P63085)
Outline: as §1

Pim-1(h) = Pim-1(h) (Homo sapiens, UniProt P11309)
Outline: as §1

ROCK-II(r) = ROCK-II(r) (Rattus norvegicus, UniProt Q62868)
Outline: as §1

ErbB4(h) = ErbB4(h) (Homo sapiens, UniProt Q15303)
Outline: as §1

PKCγ(h) = PKCγ(h) (Homo sapiens, UniProt P05129)
Outline: as §1

HIPK3(h) = HIPK3(h) (Homo sapiens, UniProt Q9H422)
Outline: as §1

IRAK1(h) = IRAK1(h) (Homo sapiens, UniProt P51617)
Outline: as §1

cKit(D816H)(h) = cKit(D816H)(h) (Homo sapiens, UniProt P10721, D816H)
Sequence of cKit(D816H)(h) (P10721 26-976 D816H): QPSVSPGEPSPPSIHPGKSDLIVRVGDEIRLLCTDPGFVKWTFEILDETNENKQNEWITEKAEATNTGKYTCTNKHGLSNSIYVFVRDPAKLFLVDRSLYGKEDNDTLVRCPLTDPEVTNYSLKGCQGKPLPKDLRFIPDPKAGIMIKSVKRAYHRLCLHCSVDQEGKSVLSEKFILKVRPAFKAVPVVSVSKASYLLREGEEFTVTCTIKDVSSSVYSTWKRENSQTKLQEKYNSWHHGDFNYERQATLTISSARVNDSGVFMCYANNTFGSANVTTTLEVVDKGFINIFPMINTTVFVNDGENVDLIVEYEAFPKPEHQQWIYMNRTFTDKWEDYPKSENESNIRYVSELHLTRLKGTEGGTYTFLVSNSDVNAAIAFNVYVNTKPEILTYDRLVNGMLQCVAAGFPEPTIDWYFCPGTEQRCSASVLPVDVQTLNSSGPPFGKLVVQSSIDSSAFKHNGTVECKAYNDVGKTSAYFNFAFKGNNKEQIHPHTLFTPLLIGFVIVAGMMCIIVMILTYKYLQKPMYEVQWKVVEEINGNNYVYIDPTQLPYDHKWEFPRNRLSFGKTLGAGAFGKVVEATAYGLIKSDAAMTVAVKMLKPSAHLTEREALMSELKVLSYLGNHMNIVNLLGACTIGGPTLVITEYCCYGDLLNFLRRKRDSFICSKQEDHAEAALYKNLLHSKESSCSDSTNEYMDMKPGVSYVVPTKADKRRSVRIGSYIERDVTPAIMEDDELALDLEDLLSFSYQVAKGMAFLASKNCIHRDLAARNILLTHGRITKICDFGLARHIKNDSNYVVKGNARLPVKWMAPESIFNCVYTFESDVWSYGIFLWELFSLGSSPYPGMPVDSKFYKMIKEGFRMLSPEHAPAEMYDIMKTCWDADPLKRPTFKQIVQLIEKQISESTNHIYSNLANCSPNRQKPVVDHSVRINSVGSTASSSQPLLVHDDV
Outline: as §1

CaMKIIγ(h) = CaMKIIγ(h) (Homo sapiens, UniProt Q13555)
Outline: as §1

[2] = target: PI3 Kinase (p110α/p65α)(m) (Mus musculus, UniProt P42337)
Outline: as §1

EGFR(T790M, L858R)(h) = EGFR(T790M, L858R)(h) (Homo sapiens, UniProt P00533, L858R/T790M)
Outline: as §1

| Compound | inhibition at 0.1 µM (CK1γ2(h)) [%] | inhibition at 0.1 µM (CDK1/cyclinB(h)) [%] | inhibition at 0.1 µM (IR(h)) [%] | inhibition at 0.1 µM (EphB3(h)) [%] | inhibition at 0.1 µM (PIP5K1α(h)) [%] | inhibition at 0.1 µM (PKCβII(h)) [%] | inhibition at 0.1 µM (PKG1α(h)) [%] | inhibition at 0.1 µM (Tec(h) activated) [%] | inhibition at 0.1 µM (Bmx(h)) [%] | inhibition at 0.1 µM (IKKα(h)) [%] | inhibition at 0.1 µM (GRK6(h)) [%] | inhibition at 0.1 µM (IRAK4(h)) [%] | inhibition at 0.1 µM (Met(M1268T)(h)) [%] | inhibition at 0.1 µM (LOK(h)) [%] | inhibition at 0.1 µM (LIMK1(h)) [%] | inhibition at 0.1 µM (CaMKIδ(h)) [%] | inhibition at 0.1 µM (Aurora-B(h)) [%] | inhibition at 0.1 µM (AMPKα2(h)) [%] | inhibition at 0.1 µM [1] [%] | inhibition at 0.1 µM (LKB1(h)) [%] | also measured |
| --- | --- | --- | --- | --- | --- | --- | --- | --- | --- | --- | --- | --- | --- | --- | --- | --- | --- | --- | --- | --- | --- |
| Cc1cc2c(F)c(Oc3nc(Nc4cc(C5CC5)[nH]n4)cc(N4CCN(C)CC4)n3)ccc2[nH]1 [Compound 10] | -20 | 10 | 83 | -8 | -2 | 3 | -25 | 46 | 98 | -12 | -5 | 37 | 91 | 73 | 83 | 6 | 97 | 90 | -6 | 14 | inhibition at 0.1 µM (MAPK2(m)): -16%; inhibition at 0.1 µM (Pim-1(h)): -21%; inhibition at 0.1 µM (ROCK-II(r)): 13%; inhibition at 0.1 µM (ErbB4(h)): 13%; inhibition at 0.1 µM (PKCγ(h)): -8%; inhibition at 0.1 µM (HIPK3(h)): -1%; inhibition at 0.1 µM (IRAK1(h)): -2%; inhibition at 0.1 µM (cKit(D816H)(h)): 86%; inhibition at 0.1 µM (CaMKIIγ(h)): -8%; inhibition at 0.1 µM [2]: -1%; inhibition at 0.1 µM (EGFR(T790M, L858R)(h)): 53% |
| Cc1cc2c(F)c(Oc3nc(Nc4cc(C5CC5)[nH]n4)cc(N4CCNCC4)n3)ccc2[nH]1 [Compound 11, N-(5-cyclopropyl-1H-pyrazol-3-yl)-2-((4-fluoro-2-methyl-1H-indol-5-yl)oxy)-6-(piperazin-1-yl)pyrimidin-4-amine] | -16 | -1 | 84 | -18 | -3 | -3 | -5 | 20 | 99 | -3 | -14 | 13 | 72 | 86 | 90 | 5 | 98 | 88 | -1 | -1 | inhibition at 0.1 µM (MAPK2(m)): 10%; inhibition at 0.1 µM (Pim-1(h)): -9%; inhibition at 0.1 µM (ROCK-II(r)): 16%; inhibition at 0.1 µM (ErbB4(h)): -5%; inhibition at 0.1 µM (PKCγ(h)): -5%; inhibition at 0.1 µM (HIPK3(h)): -3%; inhibition at 0.1 µM (IRAK1(h)): -9%; inhibition at 0.1 µM (cKit(D816H)(h)): 91%; inhibition at 0.1 µM (CaMKIIγ(h)): 22%; inhibition at 0.1 µM [2]: 2%; inhibition at 0.1 µM (EGFR(T790M, L858R)(h)): 69% |
